Residues, ends and D or L forms follow the SMILES beside them.
Columns and labels:
Type in all cases: physicochemical
[1] = Dense specific volume of crystals (after tapping the cylinder 100 times); details: crystal powder, after tapping 100 times
Experimental: The dense specific volume refers to a value obtained by dividing volume of a powder by the mass of the powder, when a container is filled with the powder and the mass of the powder is measured and then a given impact is applied to the container. The dense specific volume can be measured by a method comprising: dropping a crystal to a 50 mL glass measuring cylinder via a two-stage glass funnel to make the volume of the crystal to be about 45 mL; measuring the weight of the crystal; then tapping the measuring cylinder up and down for 100 times; and measuring the volume occupied by the crystal. A value obtained by dividing the measured volume of the crystal by the weight thereof is determined to be the dense specific volume.

[2] = Angle of rupture (Multi Tester MT-1001T); details: crystal powder, after three impacts
Text: The angle of rupture refers to an angle formed by a generating line of a cone, formed when a given impact is indirectly applied to a cone formed with a powder by allowing the powder to gently fall onto the horizontal plane through a kind of funnel, and a horizontal plane.
[Specific Example of Measurement Method for Angle of Rupture]
The operation is repeated for three times. Angles are read at three sites by a method similar to the measurement method for the angle of repose, and an arithmetic mean value of the angles is determined to be the angle of rupture.

[3] = Angle of repose (Multi Tester MT-1001T); details: crystal powder, sieve 1.18 mm, vibration width 0.7 to 0.8 mm
Experimental: The angle of repose refers to an angle formed by a generating line of a cone formed with a powder when the powder is allowed to gently fall onto the horizontal plane through a kind of funnel and a horizontal plane.
[Measurement Conditions for Angle of Repose]
Vibration width: 0.7 to 0.8 mm
The angle-of-repose table is rotated without being given vibration, angles are read at three sites, and an arithmetic mean value of the angles is determined to be the angle of repose.

[4] = Loose specific volume of crystals (50 mL measuring cylinder, two-stage funnel); details: crystal powder
Experimental: The loose specific volume refers to a value obtained by dividing volume occupied by a powder by the mass of the powder when a container is filled with the powder and the mass of the powder is measured. A crystal with a low loose specific volume is excellent in filling properties, and easy to handle in various processing steps, and also its transportation cost is low. Therefore, the loose specific volume is preferably low. The loose specific volume can be measured by a method comprising: dropping crystals to a 50 mL glass measuring cylinder via a two-stage glass funnel to make the volume of the crystal to be about 45 mL, and measuring the weight of the crystals. A value obtained by dividing the measured volume of the crystal by the weight is determined to be the loose specific volume.

[5] = Drying loss (water content of crystal by thermal analysis, TG/DTA); details: water content in the crystals as loss on drying of the thermal analysis
Experimental: The crystal of L-alanyl-L-glutamine can be confirmed to be a crystal of nonhydrate when the water content, which is measured by using a thermal analysis according to a method described in the following measurement example, is generally 3.0 wt % or less, preferably 2.5 wt % or less, and more preferably 2.0 wt % or less.
[Measurement Example of Water Content of Crystal according to Thermal Analysis]
Used equipment: EXSTAR 6000 TG/DTA 6200 (manufactured by Seiko Instruments Inc.)
Measurement conditions: Temperature increases from 20° C. to 30° C. at 20° C./min→Hold for 15 minutes at 30° C.→Temperature increases from 30° C. to 250° C. at 5° C./min
Nitrogen flow rate: 300 mL/min
About the known crystal obtained by the method described in Japanese Patent No. 4931801 and the crystals of L-alanyl-L-glutamine nonhydrate of the present invention obtained in Examples 10 to 12, the results, which measured in terms of the loose specific volume, the dense specific volume, the angle of repose, the angle of rupture, and the water content in the crystals as loss on drying of the thermal analysis, are shown in Table 17.

Structure (SMILES)	Dense specific volume [1]	Angle of rupture [2]	Angle of repose [3]	Loose specific volume [4]	Drying loss [5]
CCO.C[C@H](N)C(=O)N[C@@H](CCC(N)=O)C(=O)O [Example 1, L-alanyl-L-glutamine n-ethanolate] (H-Ala-Gln-OH)	2.08 mL/g	34.6 °	39.7 °	2.55 mL/g	
CCO.C[C@H](N)C(=O)N[C@@H](CCC(N)=O)C(=O)O [Example 2 (95° C. vacuum drying), L-alanyl-L-glutamine n-ethanolate] (H-Ala-Gln-OH)	1.88 mL/g	35.0 °	41.2 °	2.47 mL/g	
CCO.C[C@H](N)C(=O)N[C@@H](CCC(N)=O)C(=O)O [Example 4 (25° C. vacuum drying), L-alanyl-L-glutamine n-ethanolate] (H-Ala-Gln-OH)	2.32 mL/g	35.1 °	39.4 °	3.23 mL/g	
CCO.C[C@H](N)C(=O)N[C@@H](CCC(N)=O)C(=O)O [Example 4 (95° C. vacuum drying), L-alanyl-L-glutamine n-ethanolate] (H-Ala-Gln-OH)	2.21 mL/g	38.6 °	42.5 °	3.61 mL/g	
C[C@H](N)C(=O)N[C@@H](CCC(N)=O)C(=O)O [Example 5, L-alanyl-L-glutamine nonhydrate] (H-Ala-Gln-OH)	2.28 mL/g	34.7 °	40.2 °	2.60 mL/g	
C[C@H](N)C(=O)N[C@@H](CCC(N)=O)C(=O)O.O.O [Example 7, L-alanyl-L-glutamine dihydrate] (H-Ala-Gln-OH)	2.73 mL/g	38.8 °	43.8 °	3.27 mL/g	
C[C@H](N)C(=O)N[C@@H](CCC(N)=O)C(=O)O [Example 10, L-alanyl-L-glutamine nonhydrate] (H-Ala-Gln-OH)	2.59 mL/g	39.5 °	46.4 °	3.69 mL/g	1.9%
C[C@H](N)C(=O)N[C@@H](CCC(N)=O)C(=O)O [Example 11, L-alanyl-L-glutamine nonhydrate] (H-Ala-Gln-OH)	2.84 mL/g	38.0 °	42.8 °	3.65 mL/g	1.9%
C[C@H](N)C(=O)N[C@@H](CCC(N)=O)C(=O)O [Example 12, L-alanyl-L-glutamine nonhydrate] (H-Ala-Gln-OH)	2.37 mL/g	41.4 °	44.7 °	3.07 mL/g	0.3%
C[C@H](N)C(=O)N[C@@H](CCC(N)=O)C(=O)O [Patent No. 4931801 (nonhydrate), L-alanyl-L-glutamine nonhydrate, reference compound] (H-Ala-Gln-OH)	2.66 mL/g	46.0 °	50.9 °	5.27 mL/g	0.2%
